Assay results: patent publication US20090313709A1, “Genetically Modified Animal and Use Thereof” (priority 2006, published 2009)

What was measured:
[1] = system: isolated islets of Langerhans derived from control mice; test: Insulin secretion from isolated islets of Langerhans of control mice with addition of palmitic acid; type: cell-based, mouse; settings: 0.5 mM palmitic acid, 11 mM glucose, cultured 1 hour, insulin corrected by DNA amount
Protocol: (§1) Starting at 8 week-old, transgenic mice of the 47M strain and 23F strain were fed with a low-fat diet (D12450B, 10 kcal % fat, manufactured by Research Diets, Inc.) or a high-fat diet (D12492, 60 kcal % fat, manufactured by Research Diets, Inc.) for 8 weeks. Each mouse at 16 week-old had the duodenal side ligated, and the common bile duct cannulated, and a 1 mg/ml collagenase solution (manufactured by Wako Pure Chemical) was injected into the mouse pancreas. The pancreas receiving the injection was excised, placed in a tube containing the same collagenase solution, and shaken at 37° C. for 20 minutes. Subsequently, the solution was vigorously mixed for 30 seconds, and a Quenching buffer solution (Hanks Balanced Salt Solution comprising 0.001% DNaseI and 25 mM HEPES) containing 10% FBS was added to make a total volume of 20 ml. The solution was transferred to a Petri dish, and washed twice with the Quenching buffer solution, after which islets of Langerhans were recovered using a pipette under a microscopy, and this was used as the test sample. […] Meanwhile, after cultivation, islets of Langerhans were disrupted by sonication using a sonicator (manufactured by M & S Instruments Trading Inc.), the amount of DNA was determined using a Quant-iT™ Picogreen ds DNA Assay kit (manufactured by Molecular Probes), and the amount of insulin secreted was corrected.

[2] = system: isolated islets of Langerhans derived from human GPR40 gene transgenic mice of the 47M strain; test: Insulin secretion from isolated islets of Langerhans of human GPR40 gene transgenic mice (47M strain) with addition of palmitic acid; type: cell-based; settings: transgenic mouse 47M strain islets; 0.5 mM palmitic acid, 11 mM glucose, cultured 1 hour; insulin corrected by DNA amount
Protocol: as §1

CCCCCCCCCCCCCCCC(=O)O [palmitic acid]
amount of insulin secreted, increase compared with the no-addition group [1]: about 1.5 times
amount of insulin secreted, increase compared with the no-addition group [2]: about 6 times
